Measured values from US6372297B1, “Wood preservative oxathiazines” (Uniroyal Chemical Company, Inc., priority 1993, dated 2002).
Where two headings read alike, the source gives them in different places.

What was measured:
Assay type in all cases: cell-based
[1] = system: Pseudomonas alcaligenes; assay: Wood preservative efficacy against bacteria and yeasts, tryptose agar plates; design: key: 0 = growth equal to control, 1 = inhibition, 2 = no growth; details: 100 ppm in tryptose agar
Method: (§1) Compositions were prepared by dissolving the compounds shown in Table 1 in 50% ethanol and further diluting with sterile distilled water. […] After cooling, the medium was inoculated with the bacteria listed below. After sufficient growth of the untreated cultures, the compounds were evaluated using the following rating system: 0=growth equal to control 1=inhibition of growth by the compound 2=no growth under the influence of the compound. In this Table, the higher numbers are the most preferred species. Pseudomonas alcaligenes (gram neg)

[2] = system: Bacillus cereus mycoides; design: scale not given here
[3] = system: Flavobacterium sp.; assay: Wood preservative efficacy against bacteria and yeasts, tryptose agar plates; design: key: 0 = growth equal to control, 1 = growth inhibited, 2 = no growth
Method: as §1, with “Flavobacterium sp.” for “Pseudomonas alcaligenes”

[4] = system: Coniophora puteana; assay: Wood preservative efficacy against fungi, agar plate colony diameter; design: key: 0 = no fungal growth, 1-3 = 25/50/75% of untreated, 4 = equal; details: 10 ppm, Table 6B
Method: (§2) Each plate was inoculated with a spore suspension or with a small piece of agar (1 mm) from the margin of an actively growing colony of the test fungus. The fungi employed are listed below. After incubation at 22° C. and 70% relative humidity during a period long enough to allow significant growth of untreated controls, the diameters of the fungus colonies were measured and scored using the following rating system: 0=free of fungal growth 1=25% of fungal growth compared to untreated 2=50% of fungal growth compared to untreated 3=75% of fungal growth compared to untreated 4=Growth equal to that of untreated The scores measured for wood preservation efficacy of the compounds of this invention are listed in Tables 6a and 6b. In these Tables, the lower numbers are the most preferred species. Coniophora puteana (syn. C. cerebella)

[5] = system: Mucor sp.; assay: as above; details: 100 ppm, Table 6B
Method: as §2, with “Mucor sp.” for “Coniophora puteana (syn. C. cerebella)”

[6] = system: Aureobasidium pullulans; assay: as above; design: key: 1=25%, 2=50%, 3=75%, 4=100% of untreated growth; lower better; details: 10 ppm, Table 6B
Method: (§3) The compounds shown in Table 1 were dissolved in 50% ethanol and then diluted with sterile water to give the required concentrations of 1 and 10 ppm in the test agar plates. Malt extract sugar (3%) was added aseptically and uniform distribution was obtained by shaking. Each plate was inoculated with a spore suspension or with a small piece of agar (1 mm) from the margin of an actively growing colony of the test fungus. The fungi employed are listed below. After incubation at 22° C. and 70% relative humidity during a period long enough to allow significant growth of untreated controls, the diameters of the fungus colonies were measured and scored using the following rating system:
(§4) 1=25% of fungal growth compared to untreated
(§5) 2=50% of fungal growth compared to untreated
(§6) 3=75% of fungal growth compared to untreated
(§7) 4=Growth equal to that of untreated
(§8) In these Tables, the lower numbers are the most preferred species.

[7] = system: Penicillium islandicum; assay: as above; design: key: 1 = 25%, 2 = 50%, 3 = 75%, 4 = 100% of untreated fungal growth; details: 10 ppm, Table 6B
Method: as §3, §4, §5, §6, §7, §8

[8] = system: Cladosporium resinae; assay: as above; details: 10 ppm, Table 6B
Method: as §2, with “Cladosporium resinae (syn Hormonocanis resinae, Amorphotheca resinae)” for “Coniophora puteana (syn. C. cerebella)”

[9] = system: Aspergillus flavus; assay: as above; details: 10 ppm, Table 6B
Method: as §2, with “Aspergillus flavus” for “Coniophora puteana (syn. C. cerebella)”

[10] = system: Trichoderma viride; assay: as above; details: 10 ppm, Table 6B
Method: as §2, with “Trichoderma viride” for “Coniophora puteana (syn. C. cerebella)”

## CCOc1ccc(C2=NOCC[S+]2C)cc1 (stereo not drawn) [Compound 28]
[1]
  Score of bactericidal activity, P. alcalgenes: 0
[2]; 10 ppm in tryptose agar
  Score of bactericidal activity, B. cereus mycoides: 1
[2]; 100 ppm in tryptose agar
  Score of bactericidal activity, B. cereus mycoides: 2
[3]; 10 ppm in tryptose agar
  Score of bactericidal activity, Flavobacter: 0
[3]; 100 ppm in tryptose agar
  Score of bactericidal activity, Flavobacter: 2
[4]
  Score of fungicidal activity, C. PUTEANA: 0
[5]
  Score of fungicidal activity, MUCOR SP: 1 (25% of growth compared to untreated control)
[6]
  Score of fungicidal activity, A. PULLULANS: 4
[7]
  Score of fungicidal activity, P. ISLANDICUM: 4
[8]
  Score of fungicidal activity, CL RESINAE: 4
[9]
  Score of fungicidal activity, A. FLAVUS: 3 (75% of growth compared to untreated control)
[10]
  Score of fungicidal activity, T. VIRIDE: 3 (75% of growth compared to untreated control)
